This is an account of results in patent publication US9562043B2 (EA Pharma Co., Ltd., priority 2012, dated 2017).

This test deals with T1, human TRPA1 (Homo sapiens, UniProt O75762).
T1 construct: host or cells: human embryonic kidney-derived 293T cells, transient transfection with pcDNA3.1/zeo(+) plasmid
T1 sequence (O75762 whole entry): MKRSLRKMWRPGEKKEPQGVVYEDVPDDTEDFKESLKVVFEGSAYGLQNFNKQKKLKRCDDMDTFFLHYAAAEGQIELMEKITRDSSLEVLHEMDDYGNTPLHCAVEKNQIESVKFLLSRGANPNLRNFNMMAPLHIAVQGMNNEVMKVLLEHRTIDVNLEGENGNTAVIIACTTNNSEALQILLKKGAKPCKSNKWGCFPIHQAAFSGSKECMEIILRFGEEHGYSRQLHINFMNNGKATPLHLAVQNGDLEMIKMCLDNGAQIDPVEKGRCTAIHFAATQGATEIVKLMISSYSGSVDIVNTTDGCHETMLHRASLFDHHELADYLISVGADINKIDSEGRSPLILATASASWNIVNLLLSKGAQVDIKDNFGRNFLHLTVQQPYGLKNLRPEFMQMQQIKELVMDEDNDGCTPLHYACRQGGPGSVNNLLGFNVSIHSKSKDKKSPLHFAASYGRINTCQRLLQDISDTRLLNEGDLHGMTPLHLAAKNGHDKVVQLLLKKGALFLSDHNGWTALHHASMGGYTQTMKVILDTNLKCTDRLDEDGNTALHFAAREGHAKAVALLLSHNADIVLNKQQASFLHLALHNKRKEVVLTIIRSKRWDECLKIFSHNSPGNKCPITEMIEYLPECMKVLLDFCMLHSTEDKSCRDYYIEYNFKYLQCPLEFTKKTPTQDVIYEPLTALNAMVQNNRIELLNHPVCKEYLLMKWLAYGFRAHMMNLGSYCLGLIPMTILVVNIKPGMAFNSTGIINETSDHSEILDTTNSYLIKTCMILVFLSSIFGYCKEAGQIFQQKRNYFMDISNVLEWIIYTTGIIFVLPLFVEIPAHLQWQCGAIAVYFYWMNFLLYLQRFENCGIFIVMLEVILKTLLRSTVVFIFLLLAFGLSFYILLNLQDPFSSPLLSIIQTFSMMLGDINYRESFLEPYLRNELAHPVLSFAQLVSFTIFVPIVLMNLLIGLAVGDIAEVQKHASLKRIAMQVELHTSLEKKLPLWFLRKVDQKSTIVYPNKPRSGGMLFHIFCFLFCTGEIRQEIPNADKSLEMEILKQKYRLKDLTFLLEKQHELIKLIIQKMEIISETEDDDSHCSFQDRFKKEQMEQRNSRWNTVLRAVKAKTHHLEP
Nature of the test: Measurement of TRPA1 antagonist activity (intracellular calcium increase, FLIPR). Type of test: cell-based. To be noted: 293T cells transfected with human TRPA1 expression plasmid, allylisothiocyanate 20 μM stimulation, calcium fluorescence, read-out: antagonism hTRPA1. From the text: Measurement of TRPA1 Antagonist Activity
Human TRPA1 Expression Plasmid
As cDNA encoding human TRPA1 (GenBank accession No. […]), a commercially available product was purchased (manufactured by Kazusa DNA Research Institute, clone No.: pFN21AB7348, item No.: FHC07217). Using this as a template, full-length human TRPA1 gene was amplified using the primer sequences shown below, by reaction using DNA polymerase (manufactured by Stratagene, trade name: PfuUltra High-Fidelity DNA Polymerase).
A recognition site (underlined) of restriction enzyme HindIII was added to the 5′ side, and XbaI site (underlined) was added to the 3′ side, and GTT of the template sequence was changed to termination codon TAG (bold). The obtained double stranded DNA was enzyme-digested with HindIII and XbaI, and introduced into a multicloning site of expression plasmid pcDNA3.1/zeo(+) (manufactured by Invitrogen) to give a human TRPA1 expression plasmid.
Human embryonic kidney-derived 293T cells were cultured in Dulbecco's Modified Eagle Medium containing 10% fetal bovine serum, 10 unit penicillin, and 10 μg streptomycin, plated on a petri dish having a diameter of 10 cm at 3×10^6 cells, and cultured for 24 hr. A medium containing a reduced amount of serum (manufactured by Invitrogen, trade name: OPTI-MEM, 600 μL), a gene insertion reagent (manufactured by Mirus Bio, trade name: Mirus TransIT-293, 18 μL), and human TRPA1 expression plasmid (6 μg) were mixed, the total amount of the mixture was added to the cells on the petri dish to allow for gene transfer. The cells were recovered about 8 hr later, plated on a poly-D-lysine coated 384 well black/clear bottom plate at 7,500-12,000 cells/well, and cultured overnight.
Measurement of Intracellular Calcium Increase
The 384 well plate was recovered, and the medium was removed. A calcium-bonded fluorescent indicator (manufactured by Molecular Device, trade name: Calcium4 Assay Kit, 40 μL) dissolved in assay buffer (1×HBSS, 20 mM HEPES, pH 7.2) was added, and the cells were stained in a 37° C. incubator for 1 hr. The cells were taken out at room temperature and left standing for 15 min or more. A test substance (10 μL) was added by a 384 well type dispenser, and the mixture was incubated at room temperature for 10 min. Then, allylisothiocyanate (12.5 μL) at a final concentration of 20 μM was added by a fluorescence imaging plate reader (manufactured by Molecular Device, FLIPR), and changes in the relative fluorescence intensity were measured for 5 min.
Test Substance Preparation
The test substance was dissolved in dimethyl sulfoxide and serially diluted with an assay buffer containing 0.1% bovine serum albumin (1×HBSS, 20 mM HEPES, pH 7.2) to a 5-fold concentration of the evaluation concentration. Allylisothiocyanate, which is a known TRPA1 activator, was dissolved in dimethyl sulfoxide to 100 mM, and further diluted 5-fold (100 μM) of the final concentration, like the test substance.
Calculation of Antagonist Activity
Under the test substance-free conditions, the maximum variation range of the fluorescence intensity before and after allylisothiocyanate stimulation was defined to be 100% activity rate, and the variation range before and after buffer stimulation was defined as 0% activity rate. The activity rate on addition of the test substance was determined, and the numerical value obtained by subtracting the activity rate from 100 was defined to be an inhibitory rate. IC50, which is the concentration of the test substance necessary for reaching the 50% inhibitory rate, was calculated from the sigmoid approximate curve by a spreadsheet software Excel-Fit.
On the technique in general: Calcium flux is commonly read through the fluorescence of an indicator in the cells.
Take `O=C(NCc1nc(-c2ccc(Cl)cc2)cs1)[C@@H]1CCCN1S(=O)(=O)c1ccc(Cl)s1` [compound 2, (2S)-1-(5-chlorothiophene-2-sulfonyl)-N-{[4-(4-chlorophenyl)thiazol-2-yl]methyl}pyrrolidine-2-carboxamide]: the IC50 stood at 670 nM. Under `O=C(NCc1nc(-c2ccc(OC(F)(F)F)cc2)cs1)[C@@H]1CCCN1S(=O)(=O)c1ccc(Cl)s1` [compound 3, (2S)-1-(5-chlorothiophene-2-sulfonyl)-N-({4-[4-(trifluoromethoxy)phenyl]-thiazol-2-yl}methyl)-pyrrolidine-2-carboxamide] stands 160 nM; under `O=C(NCc1nc(-c2ccccc2)cs1)[C@@H]1CCCN1S(=O)(=O)c1ccc(Cl)s1` [compound 4, (2S)-1-(5-chlorothiophene-2-sulfonyl)-N-{(4-phenylthiazol-2-yl)methyl}pyrrolidine-2-carboxamide], 760 nM. Then `Cc1ccc(-c2csc(CNC(=O)[C@@H]3CCCN3S(=O)(=O)c3ccc(Cl)s3)n2)cc1` [compound 5, (2S)-1-(5-chlorothiophene-2-sulfonyl)-N-{[4-(4-methylphenyl)thiazol-2-yl]methyl}pyrrolidine-2-carboxamide], with 580 nM; and `O=C(NCc1nc(-c2cccc(C(F)(F)F)c2)cs1)[C@@H]1CCCN1S(=O)(=O)c1ccc(Cl)s1` [compound 6, (2S)-1-(5-chlorothiophene-2-sulfonyl)-N-({4-[3-(trifluoromethyl)phenyl]-thiazol-2-yl}methyl)-pyrrolidine-2-carboxamide], with 840 nM. Then `O=C(NCc1nc(-c2cccc(F)c2)cs1)[C@@H]1CCCN1S(=O)(=O)c1ccc(Cl)s1` [compound 7, (2S)-1-(5-chlorothiophene-2-sulfonyl)-N-{[4-(3-fluorophenyl)thiazol-2-yl]methyl}pyrrolidine-2-carboxamide], with 430 nM; and `O=C(NCc1nc(-c2ccc(OC(F)(F)F)c(F)c2)cs1)[C@@H]1CCCN1S(=O)(=O)c1ccc(Cl)s1` [compound 8, (2S)-1-(5-chlorothiophene-2-sulfonyl)-N-({4-[3-fluoro-4-(trifluoromethoxy)-phenyl]thiazol-2-yl}methyl)-pyrrolidine-2-carboxamide], with 170 nM; and `Cc1sc(CNC(=O)[C@@H]2CCCN2S(=O)(=O)c2ccc(Cl)s2)nc1-c1ccc(C(F)(F)F)cc1` [compound 9, (2S)-1-(5-chlorothiophene-2-sulfonyl)-N-({5-methyl-4-[4-(trifluoromethyl)phenyl]-thiazol-2-yl}methyl)-pyrrolidine-2-carboxamide], with 150 nM. As for `C[C@H](NC(=O)[C@@H]1CCCN1S(=O)(=O)c1ccc(Cl)s1)c1nc(-c2ccc(C(F)(F)F)cc2)cs1` [compound 10, (2S)-1-(5-chlorothiophene-2-sulfonyl)-N-[(1S)-1-{4-[4-(trifluoromethyl)phenyl]-thiazol-2-yl}ethyl]-pyrrolidine-2-carboxamide], the IC50 came out at 320 nM. Under `C[C@H](NC(=O)[C@@H]1CCCN1S(=O)(=O)c1ccc(Cl)s1)c1nc(-c2ccc(OC(F)(F)F)cc2)cs1` [compound 11, (2S)-1-(5-chlorothiophene-2-sulfonyl)-N-[(1S)-1-{4-(4-(trifluoromethoxy)phenyl]-thiazol-2-yl}ethyl]-pyrrolidine-2-carboxamide] stands 480 nM. Under `O=C(NCc1nc(-c2ccc(C(F)(F)F)cc2)co1)[C@@H]1CCCN1S(=O)(=O)c1ccc(Cl)s1` [compound 12, (2S)-1-(5-chlorothiophene-2-sulfonyl)-N-({4-(4-(trifluoromethyl)phenyl]-oxazol-2-yl}methyl)-pyrrolidine-2-carboxamide] stands 300 nM. Under `O=C(NCc1nc(-c2ccc(OC(F)(F)F)cc2)co1)[C@@H]1CCCN1S(=O)(=O)c1ccc(Cl)s1` [compound 13, (2S)-1-(5-chlorothiophene-2-sulfonyl)-N-({4-[4-(trifluoromethoxy)phenyl]-oxazol-2-yl}methyl)-pyrrolidine-2-carboxamide] stands 120 nM.

For the compound `O=C(NCc1csc(-c2ccc(C(F)(F)F)cc2)n1)[C@@H]1CCCN1S(=O)(=O)c1ccc(Cl)s1` [compound 14, (2S)-1-(5-chlorothiophene-2-sulfonyl)-N-({2-[4-(trifluoromethyl)phenyl]-thiazol-4-yl}methyl)-pyrrolidine-2-carboxamide], the IC50 was 200 nM. Take `O=C(NCc1nc(-c2ccc(C(F)(F)F)cc2)no1)[C@@H]1CCCN1S(=O)(=O)c1ccc(Cl)s1` [compound 15, (2S)-1-(5-chlorothiophene-2-sulfonyl)-N-({3-[4-(trifluoromethyl)phenyl]-1,2,4-oxadiazol-5-yl}methyl)pyrrolidine-2-carboxamide]: the IC50 is 240 nM. Then `O=C(NCc1nc(-c2ccc(C(F)(F)F)cc2)c[nH]1)[C@@H]1CCCN1S(=O)(=O)c1ccc(Cl)s1` [compound 16, (2S)-1-(5-chlorothiophene-2-sulfonyl)-N-({4-[4-(trifluoromethyl)phenyl]-imidazol-2-yl}methyl)-pyrrolidine-2-carboxamide], with 5840 nM. Under `Cc1cc(CNC(=O)[C@@H]2CCCN2S(=O)(=O)c2ccc(Cl)s2)nn1-c1ccc(Cl)cc1` [compound 17, (2S)-1-(5-chlorothiophene-2-sulfonyl)-N-{[1-(4-chlorophenyl)-5-methylpyrazol-3-yl]methyl)pyrrolidine-2-carboxamide] stands 4440 nM; under `O=C(NCc1nc(-c2ccc(C(F)(F)F)cc2)cs1)[C@@H]1C=CCN1S(=O)(=O)c1ccc(Cl)s1` [compound 18, (2S)-1-(5-chlorothiophene-2-sulfonyl)-N-({4-[4-{trifluoromethyl)phenyl]-thiazol-2-yl}methyl)-3,4-didehydropyrrolidine-2-carboxamide], 170 nM; under `O=C(NCc1nc(-c2ccc(Cl)cc2)cs1)[C@@H]1C=CCN1S(=O)(=O)c1ccc(Cl)s1` [compound 19, (2S)-1-(5-chlorothiophene-2-sulfonyl)-N-({4-[4-(chloro)phenyl]thiazol-2-yl}methyl)-3,4-didehydropyrrolidine-2-carboxamide], 560 nM. Under `O=C(NCc1nc(-c2cccc(C(F)(F)F)c2)cs1)[C@@H]1C=CCN1S(=O)(=O)c1ccc(Cl)s1` [compound 21, (2S)-1-(5-chlorothiophene-2-sulfonyl)-N-({4-[3-(trifluoromethyl)phenyl]-thiazol-2-yl}methyl)-3,4-didehydropyrrolidine-2-carboxamide] stands 710 nM. `O=C(NCc1nc(-c2ccc(OC(F)(F)F)c(F)c2)cs1)[C@@H]1C=CCN1S(=O)(=O)c1ccc(Cl)s1` [compound 22, (2S)-1-(5-chlorothiophene-2-sulfonyl)-N-({4-[3-fluoro-4-(trifluoromethoxy)phenyl]-thiazol-2-yl}methyl)-3,4-didehydropyrrolidine-2-carboxamide]: the IC50 worked out at 110 nM. Consider `Cc1sc(CNC(=O)[C@@H]2C=CCN2S(=O)(=O)c2ccc(Cl)s2)nc1-c1ccc(C(F)(F)F)cc1` [compound 23, (2S)-1-(5-chlorothiophene-2-sulfonyl)-N-({5-methyl-4-[4-(trifluoromethyl)phenyl]-thiazol-2-yl}methyl)-3,4-didehydropyrrolidine-2-carboxamide], for which the IC50 was 140 nM. `C[C@H](NC(=O)[C@@H]1C=CCN1S(=O)(=O)c1ccc(Cl)s1)c1nc(-c2ccc(C(F)(F)F)cc2)cs1` [compound 24, (2S)-1-(5-chlorothiophene-2-sulfonyl)-N-[(1S)-1-{4-[4 (trifluoromethyl)phenyl]-thiazol-2-yl)ethyl]-3,4-didehydropyrrolidine-2-carboxamide]: the IC50 was 470 nM.
